In patent US20240345095A1, “AN ASSAY FOR DETERMINING GASTROINTESTINAL PERMEABILITY BY DETERMINING A RATIO OF THE CONCENTRATION OF LACTULOSE TO THE CONCENTRATION OF GALACTOSE IN THE BLOOD SAMPLE” (TriviumVet Designated Activity Company, priority 2021, published 2024):
Values belong to the compound of their own block, whether it stands above or below them.

Tests used:
[1] = Plasma absorption time course of lactulose and galactose after oral administration (findings stated in the summary); assay type: in vivo
gastric ulcers = conditions: foals, ulcers associated with intravenous administration of high-dose NSAIDs; cited from earlier work
[2] = biological target: H-2 receptors on the parietal cell (Homo sapiens, UniProt P25021); conditions: human subjects, administered intravenously; cited from earlier work
H-2 receptors on the parietal cell, sequence (P25021 whole entry): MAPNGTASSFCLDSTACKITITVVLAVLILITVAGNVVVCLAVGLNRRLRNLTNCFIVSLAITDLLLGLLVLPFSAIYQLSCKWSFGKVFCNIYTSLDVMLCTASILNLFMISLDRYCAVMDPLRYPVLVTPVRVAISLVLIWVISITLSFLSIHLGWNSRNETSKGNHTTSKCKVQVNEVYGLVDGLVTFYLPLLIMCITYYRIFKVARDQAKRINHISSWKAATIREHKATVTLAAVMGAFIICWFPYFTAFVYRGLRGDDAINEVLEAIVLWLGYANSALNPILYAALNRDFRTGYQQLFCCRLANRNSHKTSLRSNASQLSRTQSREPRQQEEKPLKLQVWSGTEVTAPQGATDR

Time after which the rate of lactulose absorption slows ([1]; after oral administration): approximately 60 minutes
Period over which lactulose absorption occurs ([1]; health and disease states, after oral administration): up to 3 hours
Compound: OC[C@H]1O[C@@H](O[C@@H]2[C@@H](CO)OC(O)(CO)[C@H]2O)[C@H](O)[C@@H](O)[C@H]1O (mixture of isomers) [Lactulose, lactulose]

Compound: sucralfate
Effect on gastric ulcers (gastric ulcers): protective effect

Time at which galactose absorption peaks ([1]; after oral administration): ≤ 15 min
Time galactose remains present in plasma at measurable micromolar concentrations ([1]; after oral administration, majority of individuals tested): approximately 60 minutes
Time to peak plasma concentrations of galactose ([1]; galactose concentrations below 2% in the oral solution): ≤ 5 min
Compound: O=C[C@H](O)[C@@H](O)[C@@H](O)[C@H](O)CO [galactose]

Compound: NC(N)=Nc1nc(CSCCC(N)=NS(N)(=O)=O)cs1 [famotidine]
Time to pharmacological tolerance [2]: 12-72 hours
